This is an account of results in PubChem BioAssay AID248 (DTP/NCI, 2004).

Inconclusive results and toxic doses are left out.

This experiment relates to L1210 leukemia ip in BDF1 mice, survival T/C. The experiment can be described thus: NCI In Vivo Anticancer Drug Screen. Data for tumor model L1210 Leukemia (intraperitoneal) in B6D2F1 (BDF1) mice. The settings on record: endpoint: mean survival time, higher = longer survival. The method in brief:
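Transplantable tumor model; survival measured in treated vs vehicle control mice. Value = treated/control.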

Where [1] appears, read: dose: 100.0 mg/kg/injection, schedule: Q04DX002 (ip), vehicle: Klucel (hydroxypropylcellulose) (HPC).
[2] abbreviates: dose: 200.0 mg/kg/injection, schedule: Q04DX002 (ip), vehicle: Klucel (hydroxypropylcellulose) (HPC).
Where [3] appears, read: dose: 100.0 mg/kg/injection, schedule: Q01DX009 (ip), vehicle: saline with Tween-80.
[4] abbreviates: dose: 100.0 mg/kg/injection, schedule: Q04DX003 (ip), vehicle: saline with Tween-80.
[5] abbreviates: dose: 200.0 mg/kg/injection, schedule: Q01DX009 (ip), vehicle: saline with Tween-80.
The mark [6] stands for this setting: dose: 200.0 mg/kg/injection, schedule: Q04DX003 (ip), vehicle: saline with Tween-80.
The mark [7] stands for this setting: dose: 400.0 mg/kg/injection, schedule: Q04DX003 (ip), vehicle: saline with Tween-80.
Where [8] appears, read: dose: 100.0 mg/kg/injection, schedule: Q01DX001 (ip), vehicle: saline.
Where [9] appears, read: dose: 200.0 mg/kg/injection, schedule: Q01DX001 (ip), vehicle: saline.
Where [10] appears, read: dose: 400.0 mg/kg/injection, schedule: Q01DX001 (ip), vehicle: saline.
Where [11] appears, read: dose: 100.0 mg/kg/injection, schedule: Q01DX009 (ip), vehicle: Klucel (hydroxypropylcellulose) (HPC).
Where [12] appears, read: dose: 200.0 mg/kg/injection, schedule: Q01DX009 (ip), vehicle: Klucel (hydroxypropylcellulose) (HPC).
The mark [13] stands for this setting: dose: 400.0 mg/kg/injection, schedule: Q04DX002 (ip), vehicle: Klucel (hydroxypropylcellulose) (HPC).
[14] abbreviates: dose: 100.0 mg/kg/injection, schedule: Q04DX003 (ip), vehicle: Klucel (hydroxypropylcellulose) (HPC).
The mark [15] stands for this setting: dose: 400.0 mg/kg/injection, schedule: Q01DX009 (ip), vehicle: Klucel (hydroxypropylcellulose) (HPC).
Where [16] appears, read: dose: 400.0 mg/kg/injection, schedule: Q01DX009 (ip), vehicle: saline with Tween-80.
Where [17] appears, read: dose: 100.0 mg/kg/injection, schedule: Q01DX001 (ip), vehicle: saline with Tween-80.
[18] abbreviates: dose: 200.0 mg/kg/injection, schedule: Q01DX001 (ip), vehicle: saline with Tween-80.
Setting [19] is: dose: 400.0 mg/kg/injection, schedule: Q01DX001 (ip), vehicle: saline with Tween-80.

Turning to `Cc1ccc(S(=O)(=O)O/C=C2\CCOC2=O)cc1`, the T/C was 105 % of control under setting [1] and 112 % of control under setting [2].
`CCCCCC/C(C)=N/O`: the T/C under setting [3] is 94 % of control; the T/C under setting [4] was 106 % of control; the T/C under setting [5] is 103 % of control; the T/C under setting [6] is 95 % of control; the T/C under setting [7] is 98 % of control.
Consider `O=C(O)c1cccn1-c1cccc2c(-n3cccc3C(=O)O)cccc12`, for which the T/C was 99 % of control (dose: 50.0 mg/kg/injection, schedule: Q04DX002 (ip), vehicle: saline + alcohol); 89 % of control (dose: 100.0 mg/kg/injection, schedule: Q04DX002 (ip), vehicle: saline + alcohol); 96 % of control (dose: 200.0 mg/kg/injection, schedule: Q04DX002 (ip), vehicle: saline + alcohol).
Regarding `CCOC(=O)CCC[P+](c1ccccc1)(c1ccccc1)c1ccccc1`, the T/C is 107 % of control under setting [3] and 113 % of control under setting [5].
Take `N=c1ccccn1CC(O)COc1ccccc1` (stereo unspecified): the T/C (dose: 100.0 mg/kg/injection, schedule: Q01DX001 (ip), vehicle: carboxymethylcellulose (CMC)) is 92 % of control.
As for `CNC(=S)N/N=C/C(=N\NC(=S)NC)C(O)C(O)C(O)C(O)CO` (stereo unspecified), the T/C is 100 % of control (dose: 50.0 mg/kg/injection, schedule: Q01DX009 (ip), vehicle: saline); 100 % of control under setting [8]; 91 % of control (dose: 100.0 mg/kg/injection, schedule: Q01DX009 (ip), vehicle: saline); 97 % of control under setting [9]; 100 % of control (dose: 200.0 mg/kg/injection, schedule: Q01DX009 (ip), vehicle: saline).
Regarding `CCOCCOC(=O)COCC(=O)OCCOCC`, the T/C is 100 % of control under setting [8], 94 % of control under setting [9] and 98 % of control under setting [10].
`NS(=O)(=O)c1cc(Br)c(N=Nc2ccc(O)c3ncccc23)c(Br)c1`: the T/C reads like this: under setting [8], 100 % of control; under setting [9], 100 % of control; under setting [10], 108 % of control.
As to `O=NN(CCCl)C(=O)NC1CCC(Br)CC1` (stereo unspecified), the T/C runs as follows: (dose: 10.0 mg/kg/injection, schedule: Q01DX001 (ip), vehicle: saline with Tween-80) 122 % of control; (dose: 22.0 mg/kg/injection, schedule: Q01DX001 (ip), vehicle: saline with Tween-80) 150 % of control; (dose: 33.5 mg/kg/injection, schedule: Q01DX001 (ip), vehicle: saline with Tween-80) 197 % of control; (dose: 50.0 mg/kg/injection, schedule: Q01DX001 (ip), vehicle: saline with Tween-80) 455 % of control; (dose: 75.0 mg/kg/injection, schedule: Q01DX001 (ip), vehicle: saline with Tween-80) 455 % of control; (dose: 112.0 mg/kg/injection, schedule: Q01DX001 (ip), vehicle: saline with Tween-80) 420 % of control. In addition, the T/C (dose: 252.0 mg/kg/injection, schedule: Q01DX001 (ip), vehicle: saline with Tween-80) is 208 % of control.
Consider `N#Cc1ccc(O)cc1`, for which the T/C (dose: 100.0 mg/kg/injection, schedule: Q01DX005 (ip), vehicle: Klucel (hydroxypropylcellulose) (HPC)) was 105 % of control; the T/C under setting [11] is 99 % of control; the T/C under setting [1] is 106 % of control; the T/C (dose: 200.0 mg/kg/injection, schedule: Q01DX005 (ip), vehicle: Klucel (hydroxypropylcellulose) (HPC)) was 105 % of control; the T/C under setting [12] was 96 % of control; the T/C under setting [2] is 117 % of control. In addition, the T/C by setting is: (dose: 400.0 mg/kg/injection, schedule: Q01DX005 (ip), vehicle: Klucel (hydroxypropylcellulose) (HPC)) 108 % of control; under setting [13], 87 % of control.
In the case of `Cc1cc2oc(/C=N/N3CCOCC3)c(C)c2cc1C`, the T/C is 96 % of control under setting [11]; 90 % of control under setting [14]; 103 % of control under setting [12]; 102 % of control (dose: 200.0 mg/kg/injection, schedule: Q04DX003 (ip), vehicle: Klucel (hydroxypropylcellulose) (HPC)); 99 % of control under setting [15]; 98 % of control (dose: 400.0 mg/kg/injection, schedule: Q04DX003 (ip), vehicle: Klucel (hydroxypropylcellulose) (HPC)).
`O=C(Nc1cccc([N+](=O)[O-])c1)Nc1ccccc1F`: the T/C by setting is: under setting [11], 91 % of control; under setting [1], 108 % of control; under setting [12], 101 % of control; under setting [2], 91 % of control; under setting [15], 101 % of control; under setting [13], 94 % of control.
As to `O=C1c2ccccc2C2(Br)C(=O)c3ccccc3C12Br` (stereo unspecified), the T/C is 104 % of control under setting [1], 101 % of control under setting [2] and 93 % of control under setting [13].
With `CCN(CC)CCN1C(=O)CN=C(c2ccc[nH]2)c2cc(Cl)ccc21`, the T/C was 121 % of control under setting [3]; 100 % of control under setting [4]; 106 % of control under setting [5]; 94 % of control under setting [6]; 117 % of control under setting [16]; 96 % of control under setting [7].
In the case of `NNc1ccc(-c2ccc(NN)cc2)cc1`, the T/C is 95 % of control under setting [6] and 98 % of control under setting [7].
Take `Cc1nc(-c2ccc(N=Cc3ccc(N(CCOS(C)(=O)=O)CCOS(C)(=O)=O)cc3)cc2)c(C)s1`: the T/C is, setting by setting: (dose: 2.5 mg/kg/injection, schedule: Q04DX003 (ip), vehicle: Klucel (hydroxypropylcellulose) (HPC)) 109 % of control; (dose: 5.0 mg/kg/injection, schedule: Q04DX003 (ip), vehicle: Klucel (hydroxypropylcellulose) (HPC)) 111 % of control; (dose: 10.0 mg/kg/injection, schedule: Q04DX003 (ip), vehicle: Klucel (hydroxypropylcellulose) (HPC)) 122 % of control; (dose: 40.0 mg/kg/injection, schedule: Q04DX003 (ip), vehicle: Klucel (hydroxypropylcellulose) (HPC)) 171 % of control; (dose: 80.0 mg/kg/injection, schedule: Q04DX003 (ip), vehicle: Klucel (hydroxypropylcellulose) (HPC)) 117 % of control; under setting [14], 100 % of control.
Turning to `C[n+]1ccc(C(=O)O)c2ccccc21`, the T/C was 94 % of control (dose: 75.0 mg/kg/injection, schedule: Q01DX001 (ip), vehicle: saline); 92 % of control (dose: 75.0 mg/kg/injection, schedule: Q04DX003 (ip), vehicle: acetone); 95 % of control (dose: 150.0 mg/kg/injection, schedule: Q01DX001 (ip), vehicle: saline); 89 % of control (dose: 150.0 mg/kg/injection, schedule: Q04DX003 (ip), vehicle: acetone); 90 % of control (dose: 300.0 mg/kg/injection, schedule: Q01DX001 (ip), vehicle: saline).
On to `CCOC(=O)c1ccc(NC(=O)Oc2ccccc2OCC)cc1`, for which the T/C was 97 % of control under setting [11], 95 % of control under setting [12] and 90 % of control under setting [15].
Consider `CC(C)NCC(C#N)C1CCCCC1` (stereo unspecified), for which the T/C is 97 % of control under setting [17], 93 % of control under setting [18] and 97 % of control under setting [19].
In the case of `O=C(O)CN1C(=O)CSC1=S`, the T/C by setting is: under setting [3], 655 % of control; under setting [5], 91 % of control; under setting [16], 89 % of control.
As to `Cc1ccc(Cl)cc1NC(=O)c1ccccc1F`, the T/C reads like this: under setting [1], 93 % of control; under setting [2], 97 % of control; under setting [13], 101 % of control.
For `CC1(C)C2CCC(I)(C2)C1I` (stereo unspecified), the T/C runs as follows: under setting [17], 93 % of control; under setting [18], 90 % of control; under setting [19], 93 % of control.
Turning to `CCCCCCCCCCCCCCCCCC(=O)C(C(=O)OCC)C(=O)OCC`, the T/C runs as follows: (dose: 100.0 mg/kg/injection, schedule: Q01DX001 (ip), vehicle: other) 93 % of control; (dose: 200.0 mg/kg/injection, schedule: Q01DX001 (ip), vehicle: other) 88 % of control; (dose: 400.0 mg/kg/injection, schedule: Q01DX001 (ip), vehicle: other) 90 % of control.
